From US10961278B2, “Vancomycin derivative, preparation method, pharmaceutical composition and use thereof” (SHANGHAI INSTITUTE OF MATERIA MEDICA, CHINESE ACADEMY OF …, priority 2016, dated 2021)
≈ marks a conversion by molar mass, not a printed value. Entries after “also recorded” stand apart in the source; their conditions may differ. Like-named read-outs stand apart in the source and are kept apart here.

Assays:
[1] = tested on: vancomycin-sensitive Staphylococcus aureus Newman strain; assay: In vitro antibacterial activity assay (MIC, CLSI dilution method); type: cell-based; settings: Staphylococcus aureus, 16 h, S. aureus Newman, 37° C.
[2] = tested on: vancomycin-middle resistant Staphylococcus aureus Mu50 strain; assay: as above; type: cell-based
[3] = tested on: Staphylococcus aureus USA300 LAC strain (CA-MRSA); type: in vivo; settings: for in vivo antibacterial activity against methicillin-resistant Staphylococcus aureus, comparison with positive controls: BALB/c mice, 7 mg/kg i.p., 10 days
[4] = male, CD-1, mouse, in vivo, iv, 5 mg/kg
in vivo = settings: male, CD-1, mouse, iv, 5 mg/kg
[5] = tested on: HK-2 cells (human renal proximal tubular epithelial cells); assay: Kidney cytotoxicity assay (CCK8 cell viability); type: cell-based; settings: HK-2 cells, 10, 50, 100 μM, 72 h
Protocol: (§1) Liver and kidney cell viability assays were performed using the Cell Activity Assay Kit CCK8 (Cell Counting Kit-8) method. HK-2 cells (human renal proximal tubular epithelial cells) and HL-7702 cells (human liver cells) in logarithmic growth phase were inoculated to a 96-well culture plate at a suitable density (about 5000 cells), at 100 μL per well. […] Three replicate wells were set for each concentration, and the physiological saline vehicle control well corresponding to each concentration and a well for cell-free zero-adjustment were set. After the treatment, 10 μL of CCK8 detection solution was added into each well, the incubation was performed at 37° C. for about 1.5 h. The optical density (OD value) at 450 nm was measured on a […] microplate reader. The OD value was converted to cell viability value according to the following equation: […] wherein, ODC represents the optical density obtained by different concentrations of the compounds to be tested, C represents the concentration of the compound, and ODC=0 represents the optical density obtained without addition of the compound to be tested.

[6] = tested on: HL-7702 cells (human liver cells); assay: Liver cytotoxicity assay (CCK8 cell viability); type: cell-based; settings: HL-7702 cells, 10, 50, 100 μM, 72 h
Protocol: as §1

[7] = In vivo pharmacokinetic assay in mice; settings: for AUC(0-inf) / AUC(0-t) / MRT inf / half-life: male, CD-1, mouse, in vivo, iv, 5 mg/kg
[8] = female BALB/c mice, USA300 LAC retro-orbital, single dose 7 mg/kg intraperitoneally 1 h after infection, after 10 days
[9] = Staphylococcus aureus, 16 h, read-out: MIC Mu50
[10] = male CD-1 mice, intravenous single dose 5 mg/kg

Row | Structure (SMILES) | survival rate [3, 8] | VSS_obs [4] | MIC [1] | MIC [2, 9] | in vivo antibacterial activity against methicillin-resistant Staphylococcus aureus, comparison with positive controls ([3]; 7 mg/kg) | CL_obs [7, 10] | VSS_obs [7, 10] | AUC(0-inf) [7] | AUC(0-t) [7] | MRT inf [7] | half-life [7] | also measured
1 | CN[C@H](CC(C)C)C(=O)N[C@H]1C(=O)N[C@@H](CC(N)=O)C(=O)N[C@H]2C(=O)N[C@H]3C(=O)N[C@H](C(=O)N[C@H](C(=O)O)c4cc(O)c(CNCCCNC(=O)[C@H](O)[C@@H](O)[C@H](O)[C@H](O)CO)c(O)c4-c4cc3ccc4O)[C@H](O)c3ccc(c(Cl)c3)Oc3cc2cc(c3OC2O[C@H](CO)C(O)C(O)[C@H]2O[C@@H]2CC(C)[C@@H](O)C(C)(NCc3ccc(-c4ccc(C(F)(F)F)cc4)cc3)C2)Oc2ccc(cc2Cl)[C@H]1O (some centres unmarked) [Van016] | 60.0% | 1826 ± 334 mL/kg | – | – | – | – | – | – | – | – | – | MIC ([1]; NEWMAN): ≤ 0.0625 µg/mL; MIC ([2]; Staphylococcus aureus, 16 h, S. aureus Mu50, 37° C., read-out: MIC Mu50): 0.25 µg/mL (≈ 0.128 µM); in vivo antibacterial activity against methicillin-resistant Staphylococcus aureus, comparison with positive controls [3]: better activity than vancomycin; CL_obs [4]: 6.4 ± 1.39 mL/min/kg; AUC(0-inf) (in vivo): 13400 ± 12700 ng·h/mL; AUC(0-t) (in vivo): 10700 ± 2060 ng·h/mL; MRT inf (in vivo): 4.79 ± 0.24 h; half-life (in vivo): 223 ± 42 min
2 | CN[C@H](CC(C)C)C(=O)N[C@H]1C(=O)N[C@@H](CC(N)=O)C(=O)N[C@H]2C(=O)N[C@H]3C(=O)N[C@H](C(=O)N[C@H](C(=O)O)c4cc(O)c(CNCCO[C@@H]5OC(CO)[C@H](O)C(O)C5O)c(O)c4-c4cc3ccc4O)[C@H](O)c3ccc(c(Cl)c3)Oc3cc2cc(c3OC2O[C@H](CO)C(O)C(O)[C@H]2O[C@@H]2CC(C)[C@@H](O)C(C)(NCc3ccc(-c4ccc(C(F)(F)F)cc4)cc3)C2)Oc2ccc(cc2Cl)[C@H]1O (some centres unmarked) [Van037] | 86.6% | – | ≤ 0.0625 µg/mL | 0.25 µg/mL (≈ 0.13 µM) | better activity than vancomycin; also recorded: comparable activities with telavancin | 4.42 ± 1.42 mL/min/kg | 1077 ± 449 mL/kg | 20000 ± 5490 ng·h/mL | 16600 ± 4960 ng·h/mL | 4.21 ± 2.08 h | 176 ± 83.4 min | toxicity in kidney cells [5]: toxicity less than vancomycin and comparable to telavancin; toxicity in liver cells [6]: less toxicity in liver cells than vancomycin and telavancin
3 | CN[C@H](CC(C)C)C(=O)N[C@H]1C(=O)N[C@@H](CC(N)=O)C(=O)N[C@H]2C(=O)N[C@@H]3C(=O)N[C@H](C(=O)N[C@H](C(=O)O)c4cc(O)c(CNC5C(O)OC(CO)[C@H](O)[C@@H]5O)c(O)c4-c4cc3ccc4O)[C@H](O)c3ccc(c(Cl)c3)Oc3cc2cc(c3O[C@@H]2O[C@H](CO)C(O)C(O)[C@H]2O[C@H]2CC(C)(NCc3ccc(-c4ccc(Cl)cc4)cc3)[C@H](O)[C@H](C)O2)Oc2ccc(cc2Cl)[C@H]1O (some centres unmarked) [Van038] | 93.3% | – | ≤ 0.0625 µg/mL | 0.125 µg/mL (≈ 0.0679 µM) | better activity than vancomycin; also recorded: comparable activities with telavancin | 7.0 ± 1.38 mL/min/kg | 1754 ± 380 mL/kg | 12200 ± 2490 ng·h/mL | 12100 ± 2480 ng·h/mL | 4.18 ± 0.34 h | 229 ± 18.6 min | –
4 | CN[C@H](CC(C)C)C(=O)N[C@H]1C(=O)N[C@@H](CC(N)=O)C(=O)N[C@H]2C(=O)N[C@H]3C(=O)N[C@H](C(=O)N[C@H](C(=O)O)c4cc(O)cc(O)c4-c4cc3ccc4O)[C@H](O)c3ccc(c(Cl)c3)Oc3cc2cc(c3O[C@@H]2O[C@H](CO)[C@@H](O)[C@H](O)[C@H]2O[C@H]2C[C@](C)(N)[C@H](O)[C@H](C)O2)Oc2ccc(cc2Cl)[C@H]1O [Vanco., vancomycin] | – | 3076 ± 175 mL/kg | 2 µg/mL (≈ 1.38 µM) | – | – | 68.7 ± 18 mL/min/kg | – | – | – | – | – | MIC ([2]; Staphylococcus aureus; S. aureus Mu50, 37° C., 16 h; read-out: MIC Mu50): 8 µg/mL (≈ 5.52 µM); survival rate ([3]; in vivo, ip, 7 mg/kg): 6.6%; AUCINF_obs [7, 10]: 1271 ± 347 ng·h/mL; AUClast [7, 10]: 1242 ± 335 ng·h/mL; MRTINF_obs [7, 10]: 47.4 ± 15.6 min; T1/2 [7, 10]: 35.8 ± 12.5 min
